Test results published in ChEMBL document CHEMBL3392924, “MMV box selection for compounds with potential use in combination with artemisinin using S. cerevisiae”.

Test system: Saccharomyces cerevisiae
Assay: Assay utilized the disc diffusion method with the observance of a clear zone indicating inhibition of growth. Synthetic complete medium containing 3% glycerol as a carbon source (SCG) was used in each assay. 10 uL of each compound was added to a paper disc which was placed on SCG and SCG+Artemisinin (0.2 uM) plates seeded with 10e6 yeast cells (WC081 strain: Mat a, leu2 delta 0, lys2 delta 0, ura3 delta 0, his3 delta 1, pdr1 delta::HIS3, pdr3 delta::kanMX4, derived from BY4742, regulators of Multi-drug resistance transporters have been deleted to enhance toxicity of compounds). Plates were incubated at 30 degrees C for 5 days and clear zones were measured. Compounds that produced a larger clear zone in the presence of artemisinin was considered to have an additive interaction with artemisinin. Results are reported as diameter of clear zone on SCG+artemisinin plates - diameter of clear zone on SCG plates without artemisinin.
Assay type: organism-based
Details: in vivo, 120 h

**Q.** Which “Diameter of inhibition zone” value does the source give for CCC1(C)CC(CCNCc2ccccc2O)(c2ccc(C)cc2)CCO1 (centres undefined) here?
**A.** 0 mm

**Q.** With COc1ccc(C(=O)Nc2nonc2-c2ccc(OC)c(OC)c2)cc1Cl as the molecule, how does the “Diameter of inhibition zone” value read?
**A.** 0 mm

**Q.** For CCOc1ccc(-c2nonc2NC(=O)c2cccc(C)c2)cc1OCC, which “Diameter of inhibition zone” value is on record?
**A.** 0 mm

**Q.** With COc1ccccc1NC1=C(N2CCCCC2)C(=O)c2ccccc2C1=O as the molecule, how does the “Diameter of inhibition zone” value read?
**A.** 0 mm

**Q.** For CCCc1cc(O)c2c3c(c(=O)oc2c1)CN(C)CC3, which “Diameter of inhibition zone” value is on record?
**A.** 0 mm

**Q.** For CC1CCN(Cc2ccc(NC(=O)c3cc4ccc5cccnc5c4[nH]3)cc2)CC1, which “Diameter of inhibition zone” value is on record?
**A.** 0 mm

**Q.** With CCc1c(C)c(=N)c2ccccc2n1C.I as the molecule, how does the “Diameter of inhibition zone” value read?
**A.** 0 mm

**Q.** For COc1ccc(C2=C(c3ccc(OC)cc3)C3(c4ccccc4)C(=O)C2(c2ccccc2)C2C(=O)N(c4ccc(C)cc4)C(=O)C23)cc1 (centres undefined), which “Diameter of inhibition zone” value is on record?
**A.** 0 mm

**Q.** For Fc1ccc2[nH]c3c(NCCCN4CCOCC4)ncnc3c2c1, which “Diameter of inhibition zone” value is on record?
**A.** 0 mm

**Q.** With Cc1cc(Nc2ccc(Cl)cc2)n2nc(C(F)(F)F)nc2n1 as the molecule, how does the “Diameter of inhibition zone” value read?
**A.** 0 mm

**Q.** With CCc1ccc(Nc2cc(C)c3ccc(O)cc3n2)cc1.Cl as the molecule, how does the “Diameter of inhibition zone” value read?
**A.** 0 mm

**Q.** For CN(C)c1ccc(C=Cc2nc(=O)c3ccccc3o2)cc1, which “Diameter of inhibition zone” value is on record?
**A.** 0 mm

**Q.** How did the “Diameter of inhibition zone” value turn out when Cc1ccc(-c2cc3c(nn2)-c2ccccc2C3=O)cc1 was run?
**A.** 0 mm

**Q.** With Cc1ccc(N2C3c4ccccc4N(S(=O)(=O)c4ccc(C)cc4)C2c2ccccc2N3S(=O)(=O)c2ccc(C)cc2)cc1 as the molecule, how does the “Diameter of inhibition zone” value read?
**A.** 0 mm

**Q.** For COc1ccc(-c2nc(NC(=O)CS(=O)(=O)c3ccc(F)cc3)sc2C)cc1, which “Diameter of inhibition zone” value is on record?
**A.** 0 mm

**Q.** Which “Diameter of inhibition zone” value does the source give for C=CC12CCN(CC1)C(C(O)c1ccnc3ccc(OC)cc13)C2.Cl (centres undefined) here?
**A.** 0 mm

**Q.** With Cc1ccc(-c2cc3c(SCC(=O)Nc4cc(C(F)(F)F)ccc4Cl)nccn3n2)cc1 as the molecule, how does the “Diameter of inhibition zone” value read?
**A.** 0 mm

**Q.** For CCN(CC)CCNc1ccnc2cc(Cl)ccc12, which “Diameter of inhibition zone” value is on record?
**A.** 0 mm

**Q.** For Cc1cc(C)cc(Nc2cc(C)nc3nc(C(F)(F)F)nn23)c1, which “Diameter of inhibition zone” value is on record?
**A.** 0 mm

**Q.** How did the “Diameter of inhibition zone” value turn out when Cc1cc(Nc2ccc3ccccc3c2)n2ncnc2n1 was run?
**A.** 7 mm

**Q.** How did the “Diameter of inhibition zone” value turn out when O=C(NCC(c1ccsc1)N1CCCCCC1)c1ccc(C(F)(F)F)cc1 (centres undefined) was run?
**A.** 0 mm

**Q.** With COc1ccc(C=C2SC(=N)N(c3ccccc3OC)C2=O)cc1 as the molecule, how does the “Diameter of inhibition zone” value read?
**A.** 0 mm

**Q.** How did the “Diameter of inhibition zone” value turn out when O=C(O)C1Cc2c([nH]c3ccccc23)C(c2ccc(Cl)cc2Cl)N1 (centres undefined) was run?
**A.** 0 mm

**Q.** With CCOC(=O)c1ccc2[nH]c(-c3ccccc3)cc(=O)c2c1 as the molecule, how does the “Diameter of inhibition zone” value read?
**A.** 0 mm

**Q.** For CCOC(=O)c1c(NC(=O)c2ccccc2)sc2c(O)c(CN(CC)CC)ccc12, which “Diameter of inhibition zone” value is on record?
**A.** 0 mm

**Q.** With CCCN(CCC)CC(O)COc1ccccc1C(=O)Nc1ccccc1 (centres undefined) as the molecule, how does the “Diameter of inhibition zone” value read?
**A.** 0 mm

**Q.** How did the “Diameter of inhibition zone” value turn out when OC(CNC1CCCCC1)Cn1c2ccccc2c2ccccc21 (centres undefined) was run?
**A.** 0 mm

**Q.** How did the “Diameter of inhibition zone” value turn out when CSc1ccccc1C(=O)Nc1nc(-c2ccccn2)cs1 was run?
**A.** 3 mm

**Q.** With c1ccc(Cn2c(N=Nc3c(Nc4ccccc4)ccc4ccccc34)nc3ccccc32)cc1 as the molecule, how does the “Diameter of inhibition zone” value read?
**A.** 1 mm

**Q.** With COc1ccc(NC(=O)C2c3ccccc3C(=O)N(CC(C)C)C2c2cccs2)cc1 (centres undefined) as the molecule, how does the “Diameter of inhibition zone” value read?
**A.** 0 mm

**Q.** With COc1ccc(-c2c(C)nn3c(N)c(C#N)cnc23)cc1OC as the molecule, how does the “Diameter of inhibition zone” value read?
**A.** 0 mm

**Q.** How did the “Diameter of inhibition zone” value turn out when Cc1cc(NC(=O)C2c3ccccc3C(=O)N(CC(C)C)C2c2cccs2)no1 (centres undefined) was run?
**A.** 0 mm

**Q.** C[n+]1c2ccccc2nc2ccc(NCCO)cc21 was tested. Which “Diameter of inhibition zone” value did it give?
**A.** 0 mm

**Q.** Which “Diameter of inhibition zone” value does the source give for CCN1CCCC1CNc1[nH]cnc2c3cc(Cl)ccc3nc1-2 (centres undefined) here?
**A.** 0 mm

**Q.** How did the “Diameter of inhibition zone” value turn out when CCOC(=O)c1cn(CC)c2cc(N3CCCCC3)c(F)cc2c1=O was run?
**A.** 0 mm

**Q.** CN(C)c1ccc(C(O)(c2ccc(N(C)C)cc2)c2ccc(N(C)C)cc2)cc1 [METHYLROSANILINE] was tested. Which “Diameter of inhibition zone” value did it give?
**A.** 0 mm

**Q.** Which “Diameter of inhibition zone” value does the source give for CNCCCNc1ccnc2cc(Cl)ccc12 here?
**A.** 0 mm

**Q.** CCOC(=O)c1c(C)n(-c2ccc(Cl)cc2)c2ccc(OC(=O)C=Cc3ccccc3)cc12 was tested. Which “Diameter of inhibition zone” value did it give?
**A.** 0 mm

**Q.** How did the “Diameter of inhibition zone” value turn out when Cc1cc(C)c2c(c1)OCN(Cc1ccccc1Cl)C2 was run?
**A.** 0 mm

**Q.** For CN1CCN(c2ccc(Nc3c4ccccc4nc4ccccc34)cc2)CC1, which “Diameter of inhibition zone” value is on record?
**A.** 0 mm

**Q.** CC1CN(C(=O)c2sc3ccccc3c2Cl)CC(C)O1 (centres undefined) was tested. Which “Diameter of inhibition zone” value did it give?
**A.** 0 mm

**Q.** Cl.Oc1ccccc1CNCC12CC3CC(CC(C3)C1)C2 was tested. Which “Diameter of inhibition zone” value did it give?
**A.** 0 mm

**Q.** CCOC(=O)C1=C(c2ccccc2)N=c2sc(=Cc3cc(C)n(-c4ccc(F)cc4)c3C)c(=O)n2C1c1cccc(OC)c1OC (centres undefined) was tested. Which “Diameter of inhibition zone” value did it give?
**A.** 0 mm

**Q.** CC(C)(C)c1ccc(O)c(CNC2CCCCC2)c1 was tested. Which “Diameter of inhibition zone” value did it give?
**A.** 0 mm

**Q.** Which “Diameter of inhibition zone” value does the source give for COc1ccc(-n2ccnc2SCC(=O)Nc2cc(C)ccc2C)c(OC)c1 here?
**A.** 0 mm

**Q.** How did the “Diameter of inhibition zone” value turn out when Cc1cc(C=C2SC(=Nc3ccccc3)N(C3CCCC3)C2=O)c(C)n1-c1ccc(Cl)cc1 was run?
**A.** 0 mm

**Q.** How did the “Diameter of inhibition zone” value turn out when COc1ccc(C(C)=O)cc1N1C(=O)C2C(C1=O)C1(c3ccccc3)C(=O)C2(c2ccccc2)C(c2ccc(C)cc2)=C1c1ccc(C)cc1 (centres undefined) was run?
**A.** 0 mm

**Q.** Which “Diameter of inhibition zone” value does the source give for COc1cccc(C=Cc2nc(=O)c3ccccc3o2)c1OC here?
**A.** 0 mm

**Q.** COc1ccc(Br)cc1C1Nc2ccc3ccccc3c2C2=C1C(=O)CC(c1ccccc1)C2 (centres undefined) was tested. Which “Diameter of inhibition zone” value did it give?
**A.** 0 mm

**Q.** How did the “Diameter of inhibition zone” value turn out when CCOC(=O)c1cnc2ccc(CC)cc2c1O was run?
**A.** 0 mm

**Q.** With COc1cccc(NC(=O)[C@H](C(C)C)n2c(=O)[nH]c3ccccc3c2=O)c1 as the molecule, how does the “Diameter of inhibition zone” value read?
**A.** 0 mm

**Q.** For COc1ccc(-c2cc3c(SCC(=O)Nc4cc(C(F)(F)F)ccc4Cl)nccn3n2)cc1, which “Diameter of inhibition zone” value is on record?
**A.** 0 mm

**Q.** For Cc1ccc(N2C(=O)C3C(C2=O)C2(c4ccccc4)C(=O)C3(c3ccccc3)C(c3ccccc3)=C2c2ccccc2)cc1 (centres undefined), which “Diameter of inhibition zone” value is on record?
**A.** 0 mm

**Q.** COc1ccc(NC(=O)C2c3ccccc3C(=O)N(CC(C)C)C2c2cccs2)cc1Cl (centres undefined) was tested. Which “Diameter of inhibition zone” value did it give?
**A.** 0 mm

**Q.** Which “Diameter of inhibition zone” value does the source give for CCOC(=O)c1cnc2c(C)cc(C)cc2c1Nc1ccc(OC)c(OC)c1 here?
**A.** 0 mm

**Q.** COc1ccccc1CNC(=O)CCn1c(=O)[nH]c2ccccc2c1=O was tested. Which “Diameter of inhibition zone” value did it give?
**A.** 0 mm

**Q.** For CCCc1c(CC)c(=N)c2ccccc2n1C, which “Diameter of inhibition zone” value is on record?
**A.** 0 mm

**Q.** How did the “Diameter of inhibition zone” value turn out when CSC1=NC(=Nc2c(C)cccc2C)C2(CCC(C(C)(C)C)CC2)N1c1ccc(Cl)cc1 (centres undefined) was run?
**A.** 0 mm

**Q.** How did the “Diameter of inhibition zone” value turn out when COc1cc(OC)c(N(C)C(=O)c2cc3c(s2)-c2ccccc2S(=O)(=O)C3)cc1Cl was run?
**A.** 0 mm

**Q.** How did the “Diameter of inhibition zone” value turn out when Cc1cc(NCCN2CCCCC2)c2ccc3ccccc3c2n1 was run?
**A.** 0 mm

**Q.** CCN(CC)CCNc1ncnc2c1[nH]c1ccc(Cl)cc12 was tested. Which “Diameter of inhibition zone” value did it give?
**A.** 0 mm

**Q.** How did the “Diameter of inhibition zone” value turn out when COc1ccc2c(c1)OC(O)(C(F)(F)C(F)(F)F)CC2=O (centres undefined) was run?
**A.** 0 mm

**Q.** COc1ccc2c(=O)cc(C(Cl)(Cl)Cl)oc2c1 was tested. Which “Diameter of inhibition zone” value did it give?
**A.** 0 mm

**Q.** CCCCCC(=O)N1c2ccccc2N=C2CC(c3ccc(OC)c(OC)c3)CC(O)=C2C1c1ccc(C(F)(F)F)cc1 (centres undefined) was tested. Which “Diameter of inhibition zone” value did it give?
**A.** 0 mm

**Q.** With Cc1ccc(-c2cc3nc4c(c(O)n3n2)CCCC4)cc1 as the molecule, how does the “Diameter of inhibition zone” value read?
**A.** 0 mm

**Q.** How did the “Diameter of inhibition zone” value turn out when CN(C)CCCNc1c2ccccc2nc2ccccc12 was run?
**A.** 0 mm

**Q.** CCOC(=O)c1cn(CC)c2cc(N(C)CCc3ccc(OC)c(OC)c3)c(F)cc2c1=O was tested. Which “Diameter of inhibition zone” value did it give?
**A.** 0 mm

**Q.** Cc1cccc(Nc2nc(N)c3ccccc3n2)c1.Cl was tested. Which “Diameter of inhibition zone” value did it give?
**A.** 0 mm

**Q.** Which “Diameter of inhibition zone” value does the source give for COc1ccccc1CNC(=O)CCn1c(=O)[nH]c2ccsc2c1=O here?
**A.** 0 mm

**Q.** How did the “Diameter of inhibition zone” value turn out when O=[N+]([O-])c1ccc(C=NNc2nc3ccccc3[nH]2)cc1 was run?
**A.** 0 mm

**Q.** CCOc1cc2c(cc1OCC)C(c1cc(OC)c(O)cc1Cl)NCC2 (centres undefined) was tested. Which “Diameter of inhibition zone” value did it give?
**A.** 0 mm

**Q.** Which “Diameter of inhibition zone” value does the source give for CCN1CCN(Cc2ccc(NC(=O)c3cc4ccc5cccnc5c4[nH]3)cc2)CC1 here?
**A.** 0 mm

**Q.** For COc1ccc(-c2nc3cc(Cc4ccc5[nH]c(-c6ccc(OC)cc6)nc5c4)ccc3[nH]2)cc1, which “Diameter of inhibition zone” value is on record?
**A.** 0 mm

**Q.** For Cc1cc(Nc2ccc(C)c(Cl)c2)n2nc(C(F)(F)F)nc2n1, which “Diameter of inhibition zone” value is on record?
**A.** 0 mm

**Q.** Which “Diameter of inhibition zone” value does the source give for Cc1ccc(Nc2nc(NCCO)c3ccccc3n2)cc1C here?
**A.** 0 mm

**Q.** Which “Diameter of inhibition zone” value does the source give for c1ccc2cc3c(Nc4ccc(N5CCOCC5)cc4)ccnc3cc2c1 here?
**A.** 0 mm

**Q.** With CCC(c1ccccc1)c1nn2c(-c3cccs3)nnc2s1 (centres undefined) as the molecule, how does the “Diameter of inhibition zone” value read?
**A.** 0 mm

**Q.** How did the “Diameter of inhibition zone” value turn out when CCn1c(CN2CCN(Cc3ccccc3)CC2)nc2cc(NC(=O)c3cccs3)ccc21 was run?
**A.** 0 mm

**Q.** Which “Diameter of inhibition zone” value does the source give for CCCCCCOC(=O)C1=C(C)NC(=O)NC1c1ccccc1F (centres undefined) here?
**A.** 0 mm
